A melting point compilation (Tetko et al.; mined from patent text by program, amines drawn as free bases though some values may be those of a salt)

| SMILES | melting point [°C] |
| --- | --- |
| OC[C@H]1O[C@@H]1c1cc(F)cc(F)c1 | 48 to 50 |
| C#CCN1C(=O)COc2cc(-c3nn(C)c(C(F)(F)F)c3Cl)c(F)cc21 | 184 |
| CC(C)(C)c1ccc(C2(O)CN(C(c3ccccc3)c3ccccc3)C2)cc1 | 168 to 169 |
| Cc1ncc2n1-c1ccc(Cl)cc1C(c1ccccc1F)N(N=O)C2 (stereo not drawn) | 139 to 145 |
| CC(=O)N(CCCc1ccccc1)[C@H]1CC[C@H](c2ccc(OCc3ccccc3)cc2)CC1 | 80 to 81.5 |
| CCCCCc1c(-c2ccc3cc(OC)ccc3c2)n(Cc2ccccc2)c2ccccc12 | 76 to 80 |
| COCCNC(=O)Cc1ccc2ccn(C3CCN(CCc4ccc(F)cc4)CC3)c2c1 | 113 to 114 |
| CC(C)c1nc(N)nc(-c2ccc(F)c3ccccc23)c1Br | 176 to 180 |
| O=Cc1cc2n(n1)-c1ccc(Cl)cc1C(c1ccccc1)=NC2 | 170 to 172 |
| FC(F)(F)c1cccnc1-n1c(/C=C/c2ccccc2)nc2ccccc21 | 156 to 157 |
| Cc1ccc(C(=O)c2ccc(Cc3ccc(NS(C)(=O)=O)cc3C#N)n2C)cc1 | 171 to 172 |
| COc1ccc2ccc(N3C(=O)c4ccccc4C3OCC(=O)N(C)C)nc2n1 (stereo not drawn) | 166 |
| CC12CCC(=O)NC1=CCC1C2CCC2(C)C(=NN)CCC12 (stereo not drawn) | 379 to 382 |
| C#CCNC(=O)c1ncn2c1CN(C)C(=O)c1cc(F)ccc1-2 | 205 to 206 |
| CC(c1cccc(-c2c[nH]nn2)c1)C(O)(Cn1cncn1)c1ccc(F)cc1F (stereo not drawn) | 168 to 170 |
| COc1ccc(C(=O)c2cccc(OCc3nc(-c4ccccc4)oc3C)c2)c(OCCOC(C)=O)c1 | 90 to 91 |
| CCOC(=O)c1cn(N(C)C=O)c2c(F)c(N3CCN(C)CC3)c(F)cc2c1=O | 180 |
| CCOC(=O)COc1c2ccccc2cc2c1c(C(=O)C(N)=O)c(CC)n2Cc1ccccc1 | 130 to 131 |
| COc1ccc2c(=O)c(C(N)=O)cn(C)c2c1 | 304 to 306 |
| CCOC(=O)c1sc(Cc2ccccc2)nc1O | 97 to 98 |
| NCCC1CCc2ccc3c(c21)NC(=O)CO3 (stereo not drawn) | 128 to 134 |
| COc1ccc(Cn2c(C(C)C)c(C(=O)c3cccnc3)c3ccccc32)cc1 | 190 |
| CC(C)(C)OC(=O)N[C@@H](COC(=O)C(C)(C)C)Cc1ccccc1 | 59 to 60 |
| CN1CC(OC(c2ccccc2)c2ccccc2)C1 | 44 to 48 |
| COc1cc(OCc2ccccc2)c(C23CC4CC(CC(C4)C2)C3)cc1Br | 124 to 126 |
| CCCN1CCC=C(c2csc(NC(C)=O)n2)C1 | 109 to 112 |
| CC(C)(CO)Nc1nc(-c2cccc(C#N)c2)cs1 | 124 to 126 |

| SMILES | melting point [°C] |
| --- | --- |
| CC(C)(C)CCCOC1CCC2C3C(=O)C=C4CC(O[Si](C)(C)C(C)(C)C)CCC4(C)C3CCC12C (stereo not drawn) | 155 to 156 |
| Cc1cc2c(-c3ccccc3Cl)c(NC(=O)Nc3cccc(Cl)c3)c(=O)n(C)c2cc1C | 208 to 210 |
| Cc1c[nH]c2c1CC1CNCCC1C2 (stereo not drawn) | 151 to 153 |
| CC(=O)Nc1ccccc1NS(=O)(=O)c1cc(C(=O)O)cc(NCc2ccco2)c1Oc1ccccc1 | 207 to 210 |
| N=C(NC=Cc1ccc([N+](=O)[O-])cc1)c1cccc(N)c1 | 146 to 148 |
| COC(=O)c1ccccc1S(=O)COc1ccc(Cl)cc1Cl (stereo not drawn) | 64 to 67 |
| CN(C(=O)c1cc(=O)n(C)c2ccc(C(=O)c3ccc(Cl)cc3)cc12)c1cccc(Cl)c1 | 184 |
| CS(=O)(=O)c1ccc(/C(=C\C2CCCCC2)C(=O)O)cc1 | 195 to 197 |
| O=C1C(CCO)Oc2ccccc2N1Cc1ccncc1 (stereo not drawn) | 153 to 154 |
| Nc1onc(C(F)(F)F)c1-c1ccccc1 | 89 to 91 |
| CCOC(=O)c1ccc(OCCC2CCN(c3cc(Cl)nnc3Cl)CC2)cc1 | 153 to 155 |
| CCCC(=O)c1cnc2ccccc2c1Nc1ccccc1C | 107 to 109 |
| O=c1[nH]c2cc(Cl)ccc2c(=O)n1S(=O)(=O)c1cccc2cccnc12 | 284 to 286 |
| O=CNc1ccc(C(=O)N(CCN2CCC(C(=O)c3ccc(F)cc3)CC2)c2cccnc2)cc1 | 147 to 148 |
| Cc1c[nH]c(-c2cnn(-c3c(Cl)cc(C(F)(F)F)cc3Cl)n2)n1 | 217 to 218 |
| OCCn1cc(-c2ccc3nnn(Cc4c(F)ccc(F)c4Cl)c3n2)cn1 | 143 to 145 |
| O=[N+]([O-])c1ccnc(-c2cc(C(F)(F)F)ccc2F)c1 | 58.1 |
| CC(=O)OCCCN1CCC(CNC(=O)[C@@H]2CCCN2S(=O)(=O)c2ccc(Cl)c(COc3cccc4c(-n5cccn5)cc(C)nc34)c2Cl)CC1 | 89 |
| O=C(O)COc1ccc(SCc2ccc(-c3ccc(C(F)(F)F)cc3)cc2)c2c1CCCO2 | 122 to 124 |
| O=[N+]([O-])c1ccccc1SC1SCC(O)C(O)C1O (stereo not drawn) | 185 |
| N#CC1CN1C(=O)c1ccc2c(c1)OCO2 (stereo not drawn) | 95 to 97 |
| COc1cc(Nc2nccc(Nc3ccc(OCC(=O)OC(C)(C)C)cc3)n2)cc(OC)c1OC | 139 |
| CC(=O)Nc1c(C#N)oc2ccccc12 | 164 to 167 |
| O=C(O)CN1C(=O)[C@@H](N[C@@H](CCC2CCCCC2)C(=O)O)COc2ccccc21 | 202 to 205 |
| O=[N+]([O-])c1ccc2c(C3CCN(C[C@H](O)COc4cccc5[nH]ccc45)CC3)c[nH]c2c1 | 212 to 214 |
| COc1ccc(-c2nc3cccc(C(=O)NC4CN5CCC4CC5)c3o2)cc1 (stereo not drawn) | 166 to 167 |

Further lines, results first:

| melting point [°C] | SMILES |
| --- | --- |
| 150 to 155 | COC(=O)c1ccc(Cn2cnc3c(Cl)nc(N)nc32)cc1 |
| 84 to 85.5 | c1ccc(-c2nc(-c3ccccc3)c(-c3ccccc3)s2)cc1 |
| 62 to 64 | Cc1cc(C)c(N)cn1 |
| 142 to 144 | CC(=O)Nc1ccc(C(C)=O)c2c1OCCO2 |
| 196 to 197 | Cc1cc(C)c(Nc2nc(C)ccc2S(=O)(=O)c2cccc(O)c2)c(C)c1 |
| 157 to 158 | N#CC(C(=O)Cl)=C(c1ccccc1)c1ccccc1 |
| 159 to 160 | CCCCC(=O)Nc1c(C(=O)c2cccc(Cl)c2)[nH]c2cc(Cl)ccc12 |
| 70 | Cc1c(-c2ccccc2)nc(C(F)(F)F)oc1=O |
| 129 to 131 | O=C1NC(=O)C(S(=O)(=O)c2ccccn2)S1 (stereo not drawn) |
| 166 to 168 | CC(C)(C)c1cc2c(c(C(C)(C)C)c1)OCC(/C=C/C=C/C=C/C(=O)O)=C2 |
| 280 to 283 | O=C(O)c1c[n+]([O-])cc2ccccc12 |
| 81 to 85 | CC12CCC(C1)C(C)(C)C2(CCO)SN=O (stereo not drawn) |
| 223 to 224 | COc1ccc2c(c1)C(c1ccccc1)N(S(C)(=O)=O)N=C2Cc1c(Cl)cncc1Cl (stereo not drawn) |
| 129 to 130 | COc1ccc2ccccc2c1[N+](=O)[O-] |
| 121 to 122 | CCOC(=O)n1c(=O)n(CCN2CCN(c3ccccc3OC)CC2)c(=O)c2sccc21 |
| 65 to 67 | CC(C)n1nc2cccc([N+](=O)[O-])c2n1 |
| 135 to 136 | COC(=O)c1ccc(Oc2cc3c(cc2Br)C(C)(C)CCC3(C)C)cc1 |
| 165 to 166 | O=C(O)CS(=O)c1ccc2c(-c3ccccc3F)noc2c1 (stereo not drawn) |
| 242 to 243 | O=C(O)c1ccc2c(c1)nc(-c1ccc(OC(c3cccc(F)c3)c3cccc(F)c3)cc1F)n2C1CCCCC1 |
| 125 | CCCCCCCNC(=O)Nc1ccccc1C(=O)N1CCCN(C(c2ccccc2)c2ccccc2)CC1 |
| 135 to 137 | CCOC(=O)C1=C(COCC2COC(C)(C)O2)NC(C)=C(C(=O)OC)C1c1cccc(Cl)c1Cl (stereo not drawn) |
| 80 to 100 | CS(=O)(=O)c1ccc(-c2cnn(-c3ccc(F)cc3)c(=O)c2N2CCCCC2)cc1 |
| 247 to 248 | Cn1cc(-c2cc3cccnc3[nH]2)c2cc(N)ccc21 |

| melting point [°C] | SMILES |
| --- | --- |
| 200 to 201 | CS(=O)(=O)c1ccc(-c2nn3c4c(oc3c2-c2ccc(F)cc2)COCC4)cc1 |
| 113 to 115 | Cc1ccccc1NC(=O)c1c(Br)cccc1[Si](C)(C)C |
| 151 to 153 | COc1ccc2c(c1)N(C1=CCCN1C1=NCCC1)c1ccccc1S2 |
| 99 to 102 | CCOC(=O)c1ccc2c(c1)c(-c1ccccc1)nn2CCC#N |
| 188 to 190 | CNc1nc(-c2cccc(-c3cnc4c(C)cccc4c3)c2)c2cc(OC)c(OC)cc2n1 |
| 157 to 158 | Cc1cc(SCc2sc(-c3ccc(C(F)(F)F)cc3)nc2C)c2c(c1OCC(=O)O)CCO2 |
| 206 | COc1ccccc1S(=O)(=O)C(C)(Cc1ccc2ncccc2c1)C(=O)NO (stereo not drawn) |
| 104 to 105 | CCCCCCCCOc1ccc(-c2ccc(C(=O)Oc3ccc(C(C)(Br)C(=O)OC)cc3)cc2)cc1 (stereo not drawn) |
| 236 to 237 | C/C(=C\c1ccc(C(=O)O)cc1)c1ccc2c(c1)SCCS2 |
| 210 to 215 | CCc1ncnc2cc(O)c(OC)cc12 |
| 82.2 to 84.2 | CCc1ccccc1-c1cccc(Br)c1OCc1cccc(C(=O)NCCO)c1 |
| 273 | Nc1nc2ccc(S(=O)(=O)n3c(CCCC(=O)O)cc4nc(Cl)ccc43)cc2o1 |
| 93 to 94 | COc1ccccc1N1CCN(CC(O)COc2cc(C)c(OCc3ccccc3)c(C)c2)CC1 (stereo not drawn) |
| 120 to 150 | Cc1cccc(C)c1C(=O)n1cc(F)c(N=CN(C)C)nc1=O |
| 100 to 101 | CCOC(=O)CCC(=O)c1ccc(-c2ccccc2)cc1 |
| 122 to 124 | COc1ccc(CC2N(C)CCC(O)(c3ccccc3)C2(C)C)cc1 (stereo not drawn) |
| 214 to 215 | O=C1CC=C(c2ccccc2F)c2cc(Cl)ccc2N1 |
| 153 to 154 | Cc1cc(Cl)c(N2C(=O)Cc3cc(C)ccc32)c(Cl)c1 |
| 114 to 115 | CC(C)c1nc(-c2cccc3c2OCO3)cc(-c2ccc(F)cc2)c1CO |
| 149 to 150 | CCOC(=O)C(=C(c1ccc(F)cc1)c1ccc(F)cc1)n1nnnc1-c1ccccc1 |
| 225 to 227 | Cn1ncc2cc3ncc(-c4ccc(Cl)s4)nc3cc21 |
| 264 | CC(=O)Nc1nc(-c2ccc(O)cc2O)cs1 |
